In the CheMixHub ionic liquid set:
± gives the uncertainty stated by the source.

Experiment: xn = mol fraction of the nth substance listed

CC[NH3+].O=[N+]([O-])[O-] + CC#N
100 kPa
Conditions	electrical conductivity [S/m]	viscosity [mPa·s]
278 K, x1 = 0.3	2.52 ± 0.25	–
288 K, x1 = 0.7	2.71 ± 0.27	–
288.08 K, x1 = 0.7	–	20.78 ± 0.67
288.08 K, x1 = 0.98	–	43.7 ± 1.4
288.09 K, x1 = 0.3	–	3.15 ± 0.11
293.09 K, x1 = 0.3	–	2.819 ± 0.096
298 K, x1 = 0.7	3.71 ± 0.37	14.73 ± 0.49
298.1 K, x1 = 0.98	–	33.2 ± 1.1
298.14 K, x1 = 0.2	–	1.406 ± 0.053
308 K, x1 = 0.2	5.19 ± 0.52	–
308 K, x1 = 0.7	4.94 ± 0.49	–
308.09 K, x1 = 0.8	–	14.76 ± 0.48
308.11 K, x1 = 0.9	–	20.7 ± 0.68
308.12 K, x1 = 0.6	–	7.76 ± 0.25
308.14 K, x1 = 0.7	–	10.53 ± 0.34
308.15 K, x1 = 0.3	–	2.292 ± 0.079

C[N+](C)(C)CCC[N+]1(C)CCCCC1.N#C[N-]C#N.N#C[N-]C#N + CC#N
100 kPa
Conditions	viscosity [mPa·s]
288.15 K, x1 = 0.7996	2305 ± 270
293.15 K, x1 = 0.0999	3.69 ± 0.37
293.15 K, x1 = 1	4503 ± 560
298.15 K, x1 = 0.3001	37.7 ± 3.8
298.15 K, x1 = 0.5002	181 ± 19
298.15 K, x1 = 1	2819 ± 340
303.15 K, x1 = 0.3998	69.5 ± 7
308.15 K, x1 = 0.0999	2.98 ± 0.3
308.15 K, x1 = 0.3001	26.5 ± 2.7
308.15 K, x1 = 0.3998	56.5 ± 5.7
308.15 K, x1 = 0.5002	109 ± 11
313.15 K, x1 = 0.2001	9.24 ± 0.93
313.15 K, x1 = 0.8998	545 ± 59
318.15 K, x1 = 0.0999	2.68 ± 0.27
318.15 K, x1 = 0.2001	8.26 ± 0.83
318.15 K, x1 = 0.5002	70.4 ± 7.1
318.15 K, x1 = 0.7001	163 ± 17
318.15 K, x1 = 1	618 ± 67
323.15 K, x1 = 0.3001	17.3 ± 1.7
323.15 K, x1 = 0.6	91.8 ± 9.3
323.15 K, x1 = 0.7001	130 ± 13
328.15 K, x1 = 0.2001	6.82 ± 0.69
328.15 K, x1 = 0.5002	48.7 ± 4.9
328.15 K, x1 = 0.6	74.3 ± 7.5
333.15 K, x1 = 0.5002	41.6 ± 4.2
333.15 K, x1 = 0.8998	183 ± 19

CCCC[P+](CCCC)(CCCC)CCCC.F[B-](F)(F)F + CC#N + C1CCOC1
298.15 K, 100 kPa
Conditions	viscosity [mPa·s]
x1 = 0.0005747, x2 = 0.84	0.377 ± 0.007
x1 = 0.0006326, x2 = 0.6368	0.408 ± 0.007
x1 = 0.000709, x2 = 0.369	0.437 ± 0.008
x1 = 0.0008641, x2 = 0.8398	0.381 ± 0.007
x1 = 0.0009513, x2 = 0.6366	0.412 ± 0.007
x1 = 0.001066, x2 = 0.3689	0.442 ± 0.008
x1 = 0.001153, x2 = 0.8395	0.384 ± 0.007
x1 = 0.00127, x2 = 0.6364	0.416 ± 0.007
x1 = 0.001429, x2 = 0.3688	0.447 ± 0.008
x1 = 0.001442, x2 = 0.8393	0.388 ± 0.007
x1 = 0.001588, x2 = 0.6362	0.42 ± 0.008
x1 = 0.001736, x2 = 0.839	0.392 ± 0.007
x1 = 0.001786, x2 = 0.3686	0.451 ± 0.008
x1 = 0.001911, x2 = 0.636	0.424 ± 0.008
x1 = 0.002029, x2 = 0.8388	0.396 ± 0.007
x1 = 0.002142, x2 = 0.3685	0.456 ± 0.008
x1 = 0.002229, x2 = 0.6358	0.429 ± 0.008
x1 = 0.002504, x2 = 0.3684	0.461 ± 0.008

CCCC[P+](CCCC)(CCCC)CCCC.F[B-](F)(F)F + CC#N + C1COCO1
298.15 K, 100 kPa
Conditions	viscosity [mPa·s]
x1 = 0.0005495, x2 = 0.8436	0.41 ± 0.007
x1 = 0.0005755, x2 = 0.6431	0.471 ± 0.008
x1 = 0.0006287, x2 = 0.3754	0.532 ± 0.008
x1 = 0.0008217, x2 = 0.8434	0.414 ± 0.007
x1 = 0.0008656, x2 = 0.6429	0.476 ± 0.008
x1 = 0.0009366, x2 = 0.3753	0.537 ± 0.008
x1 = 0.001098, x2 = 0.8432	0.418 ± 0.007
x1 = 0.001156, x2 = 0.6427	0.481 ± 0.008
x1 = 0.00125, x2 = 0.3751	0.543 ± 0.008
x1 = 0.001375, x2 = 0.8429	0.422 ± 0.008
x1 = 0.001445, x2 = 0.6425	0.486 ± 0.008
x1 = 0.001564, x2 = 0.375	0.548 ± 0.008
x1 = 0.001651, x2 = 0.8427	0.426 ± 0.008
x1 = 0.00174, x2 = 0.6423	0.491 ± 0.008
x1 = 0.001878, x2 = 0.3749	0.554 ± 0.008
x1 = 0.001927, x2 = 0.8425	0.43 ± 0.008
x1 = 0.00203, x2 = 0.6421	0.496 ± 0.008
x1 = 0.002191, x2 = 0.3748	0.56 ± 0.008

C[P+](c1ccccc1)(c1ccccc1)c1ccccc1.[Br-] + CC(=O)O
Conditions	viscosity [mPa·s]
298.2 K, 101 kPa, x1 = 0.2	74.5 ± 2.5

CC(=O)[O-].[NH4+] + CC(=O)[O-].CC[n+]1ccn(C)c1
101 kPa
Conditions	electrical conductivity [S/m]	viscosity [mPa·s]
298.15 K, x1 = 0.4491	0.0734 ± 0.0015	1020 ± 74
308.15 K, x1 = 0.328	0.215 ± 0.0043	273 ± 18
308.15 K, x1 = 0.4491	0.148 ± 0.003	458 ± 31
313.15 K, x1 = 0.0999	0.494 ± 0.0099	76.2 ± 4.9
313.15 K, x1 = 0.1703	0.41 ± 0.0082	101.3 ± 6.6
313.15 K, x1 = 0.328	0.286 ± 0.0057	197 ± 13
318.15 K, x1 = 0.2498	0.449 ± 0.009	106.6 ± 6.9
318.15 K, x1 = 0.328	0.371 ± 0.0074	144.6 ± 9.4

CC(=O)[O-].[Na+] + CC(=O)[O-].CC[n+]1ccn(C)c1
303.15 K, 101 kPa, x1 = 0.1001
Conditions	electrical conductivity [S/m]	viscosity [mPa·s]
–	0.252 ± 0.005	147.4 ± 9.7
